Tests used:
E. coli BL21 = experiment: Growth and GFPuv expression in E. coli BL21 (DE3), shake flask batch culture in complex medium; assay type: cell-based, Escherichia coli
Procedure: (§1) The measurement of GFP expression by whole cell fluorescence measurements follows the procedure of Scholz et al. (Eur. J. Biochem., 2000,267, 1565-1570). Frozen cell pellets are thawed, resuspended in 1 mL PBS [NaCl (8 g/L), KCl (0.2), of Na2HPO4 (1.44), KH2PO4 (0.24), adjusted to pH 7.4] and subsequently diluted to an optical density of 0.1. GFP fluorescence of whole cells is measured in a Eclipse Fluorometer (Varian) with an excitation wavelength of 400 nm and an emission wavelength of 512 nm. Specific relative fluorescence [RFU/OD600] is calculated by dividing the relative fluorescence emmision units by the optical density of the suspension at 600 nm.
Precultures are prepared in 250 mL baffled shake flasks containing 25 mL sterile LB medium [Tryptone (10.0 g/L), yeast extract (5.0), NaCl (10.0), kanamycin 30 (mg/L); adjusted to pH 7.0 with NaOH]. Cultures are inoculated with 250 μL of a glycerol stock stored at −80° C. of E. coli BL21 [Novagen, Madison, USA; Genotype: E ompT hsdSB (rB^− mB^−) gal dcm (DE3)] harboring the plasmid pET28a-GFPuv which is obtained by inserting the GFPuv gene (isolated from pBAD-GFPuv through PCR) into the EcoRI site of pET28a (Novagen, Madison, USA) which placed the GFPuv gene under the control of the T7/Lac promotor system. Precultures are incubated at 37° C. for 10-12 h.
Experimental cultures are performed in a volume of 25 mL of the above described medium in 250 mL baffled shake flasks. Stabilizers are added to a final concentration of 5 mM as indicated from sterile stock solutions. Cultures are started by inoculating with the preculture to an OD600 at 600 nm of 0.25. Samples are taken for OD600 measurements. Cultures are induced by adding IPTG (Isopropyl-β-D-thiogalactoside) to a final concentration of 0.5 mM when the OD600 reaches 0.5. Samples of 1 mL are taken after induction for OD600 reading and GFP quantification. For GFP quantification 1 mL of the culture is harvested after 2-4 h and after 20 h after induction. Cells are collected by centrifugation at 16 000 g and the cell pellet is stored at −20° C. for further analysis. Analysis of in vivo GFP fluorescence is performed by the method described in Example 1.

E. coli HM125 = experiment: Growth and expression of FimH-CRD in E. coli HM125, shake flask cultivation in mineral medium; assay type: cell-based, Escherichia coli; settings: for mg FimH/g cell: control 0.81; for FimH / Cell pellet: mean of triplicate; for FimH: control 6.48 ± 0.36; for Cell pellet: control 7.99 ± 0.25
Excerpt: Standard molecular techniques are used for the cloning of the FimH carbohydrate recognition domain (FimH-CRD). The plasmid pfimHs-trc, encoding FimH lectin domain (1-156 amino acids M. Vetsch P et. al. 2002—J. Mol. Biol. 322: 827-840), is kindly provided by R. Glockshuber (ETH Zürich, Switzerland). The FimH-CRD fragment is amplified by polymerase chain reaction using specific forward primer containing the restriction site NdeI and a specific reverse primer containing the thrombin cleavage site and the restriction site XhoI, respectively. The insert is ligated into the corresponding cloning site in pET21b. The resulting contrast is named pET21b-FimH-CRD.
Precultures are prepared in 25 mL sterile LB medium [Tryptone (10.0 g/L), yeast extract (5.0 g/L), NaCl (10.0 g/L), ampicillin 100 (mg/L); adjusted to pH 7.0 with NaOH]. Cultures are inoculated with a glycerol stock stored at −80° C. of the protease deficient strain E. coli HM125 (Meerman H J & Georgiou G. 1994. Biotechnology (NY) 2, 1107-1110) harboring the plasmid pET21b-FimH-CRD Vector. Precultures are incubated at 37° C. for 10-12 h. Experimental cultures are performed in a volume of 500 mL of modified M9 medium [Na2HPO4×7H2O (12.8 g/L), KH2PO4 (3 g/L), NaCl (0.5 g/L), NH4Cl (1 g/L), D-glucose (4 g/L), MgSO4 (0.12 g/L), CaCl2 (0.01 g/L) and vitamins (in mg/L): riboflavin (0.1), choline chloride (1), folic Acid (1), niacinamide (1), p-amino benzoic acid (1), pyridoxal-HCl (1), thiamine-HCl (1), myo-lnositol (2)] supplemented with 100 mg/L ampicillin. Cultures are inoculated with 5 mL of the preoculture and grown at 30° C. and 150 rpm) until the optical density at 600 nm (0D600) reached 0.8-1.0. Then 1 mM IPTG and the stabilizer(s) (obligatory additive) according to the invention are added to final concentrations of 5, 10 and 20 mM as indicated from sterile stock solutions and the cultures are grown overnight. Then the cells are cooled on ice for 5 min and harvested by centrifugation at 5′000 rpm for 20 min at 4° C. Cell are harvested by centrifugation and biomass is quantified by weighing the wet cell pellets. The pellet is suspended in a cold solution of 50 mM Tris-HCl, pH 7.5, 150 mM NaCl, 5 mM EDTA, 1 mg/mL polymyxin B sulfate and stirred for two hours at 4° C. After centrifugation at 11′000 rpm for 20 min at 4° C., the supernatant (periplasmic extract) is dialyzed overnight against 50 mM NaH2PO4, 300 mM NaCl and 10 mM imidazole, pH 8 (binding buffer) and applied to a Ni-NTA column (Sigma, Buchs, Switzerland) attached to a BioLogic fast protein liquid chromatography system (BioRad, Reinach BL, Switzerland). The column is washed with binding buffer and afterwards eluted with 50 mM NaH2PO4, 300 mM NaCl and 250 mM imidazole, pH 8 (elution buffer). Fractions containing FimH-CRD-Th-6H is are pooled and dialyzed against water and then against 20 mM HEPES, 150 mM NaCl and 1 mM CaCl2, pH 7.4.
The concentration of protein is determined by HPLC method (Agilent 1100/1200 series) using BSA as standard (Sigma). The column Poros R1/10 10 μm (100×2 mm, Morvay Analytik) is kept at 60° C.; eluents are A: 0.1% trifluoroacetic acid (TFA) in H2O and B: 90% MeCN+0.09% TFA. A gradient of 20% B to 90% B is run within 20 min at a flow rate of 0.2 mL/min. The detection is monitored at 210 nm. Results are compiled in the following tables 5 and 6.

E. coli JM109 [1] = experiment: Growth and GFPuv expression in E. coli JM109, shake flask cultivation in mineral medium; assay type: cell-based, Escherichia coli; settings: additive 5 mM, 20 h, mean of two
Procedure: Precultures are prepared in 250 mL baffled shake flasks containing 25 mL sterile mineral medium [macronutrients in g/L: Glycerol (25), (NH4)2-citrate (1.0), Na2HPO4 2H2O (9.0), KH2PO4 (1.82), NH4Cl (1.52), MgSO4 (0.12), (NH4)2SO4 (0.6); Ampicillin ([…]); micronutrients in mg/L: Na2-EDTA (8.4), thiamine (4.5), Fe(III) citrate (12.5), Na2MoO4 2×H2O (2.5), H3BO3 (3), CoCl2 6×H2O (2.5), CuSO4 5×H2O (0.45) MnCl24×H2O (15), ZnCl2 (8) adjusted to pH 7.0]. Cultures are inoculated with 250 μL of a glycerol stock stored at −80° C. of E. coli JM109 (Promega Inc, Wallisellen, C H; Genotype: endA1, recA1, gyrA96, thi, hsdR17 (rk^−, mk^+), re/A1, supE44, Δ(lac-proAB), [F″ traD36, proAB, laql^qZΔM15]) harboring the plasmid pBAD-GFPuv (Biorad Inc., Reinach, C H; Genbank U62637.1, containing the GFPuv gene under control of the ara promoter; GFP=Green Fluorescent Protein). Precultures are incubated at 37° C. for 10-12 h.
Experimental cultures are performed in a volume of 25 mL of the above described medium in 250 mL baffled shake flasks. Stabilizers according to the invention are added to a final concentration of 5 mM as indicated from sterile stock solutions. Cultures are started by inoculating with the preculture to an optical density at 600 nm (OD600) of 0.25. Growth of the culture is monitored by reading optical density at 600 nm. Cultures are induced by adding L-arabinose to a final concentration of 0.2% (w/v) when the OD600 reaches 0.5. Samples of 1 mL are taken 6 and 20 h after induction for OD600 reading and GFP quantification. For GFP quantification 1 mL of the culture is harvested after 2-4 h and after 20 h after induction. Cells are collected by centrifugation at 16 000 g and the cell pellet is stored at −20° C. for further analysis.
as §1

E. coli JM109 [2] = experiment: Growth and GFP expression in high cell density fedbatch cultivation of E. coli JM109 in mineral medium; assay type: cell-based, Escherichia coli; settings: for Optical density Value / GFP expression (RFU/OD600) Value: additive 5 mM; for GFP expression Factor / Optical density Factor: relative to control = 1
Procedure: as §1
A first preculture of E. coli JM109 harboring the plasmid pBAD-GFPuv is initiated from glycerol stocks stored at −80° C. in 3 mL of LB medium containing 0.01% (v/v) Antifoam A (Fluka). After growth for 10-12 h it is used to seed 2×100 mL of mineral medium (as described in Example 1) containing 0.01% Antifoam A (silicone fluid containing a suspension of finely powdered silica to enhance its defoaming efficiency; Dow Corning Corporation, Midland, Mich., USA), in 1 L baffled shake flasks. After 10-12 h this culture is centrifuged resuspended in 50 mL mineral medium and is used to inoculate the main culture.
Cultivation is performed in BioFlow110 bioreactors (Total volume 2.2 L; New Brunswick Scientific, Nürtingen, Germany) filled with 1 L of mineral medium plus 0.01% (v/v) Antifoam A for the batch phase. Reactors are equipped with pH, pO2 and foam probes, mass flow controllers to control gas flow and ratio of air and pure oxygen and pumps for automated dosage of base (14% [v/v] aqueous NH3), antifoam (25% [v/v] Antifoam A) and nutrient feed solution. The agitation is set to 500 rpm and air is supplied at a gas flow rate of 2 L/min. The fedbatch culture is incoculated to an OD600 of 0.25-0.5 and allowed to grow unlimited with a specific growth rate of ˜0.5 h^−1. Growth is monitored by measuring OD600. When the disolved oxygen concentration decreases to 30%, automated adjustment of the air:oxygen ratio in the gas mix is started to control dO2 to 30% using a PID loop. When the gas mix consisted of 100% oxygen a further increase in oxygen transfer is achieved through increasing the agitation rate up to a maximum level of 1200 rpm. When glycerol in the batch medium is completely consumed, as indicated by a distinct drop of pure oxygen in the gas mix, feeding solutions (first containing 70 g/L glycerol and later as cell density increased 200 g/L glycerol in mineral medium) are pumped into the reactor by a predefined exponential fed scheme. The feeding rate is calculated to allow the cells to grow at a growth rate of approximately 0.15 h^−1. During the feeding phase dO2 is also kept at 30%. 3-6 h after starting the feeding protein expression is induced by the addition of 0.2 (w/v) L-arabinose. Samples are taken every hour for OD600 reading and to obtain cell pellets which are stored at −20° C. for further analysis. Analysis of in vivo GFP fluorescence is performed by the method described in Example 1.

P. pastoris = settings: 4-10 mM in the medium; Xiao, Appl. Microbiol. Biotechnol. (2006); cited from earlier work
[3] = Experiment 6, process time 24.75 h
[4] = Experiment 7, process time 17 h

Compound: CC1(C)CC(O)CC(C)(C)N1O [1,4-dihydroxy-2,2,6,6-tetramethylpiperidine]
- Growth (Final OD600) (E. coli BL21; Experiment 2, additive 5 mM, 20 h after induction, control 3.3): 3.19 OD600
- GFP expression (Relative fluorescence unit*OD600^−1) (E. coli BL21; Experiment 2, additive 5 mM, 20 h after induction, control 195): 222 Relative fluorescence unit*OD600^−1
- Effect on GFPuv expression and growth, in words (E. coli BL21; comment on Table 2): shows at least some effect and is not detrimental
- mg FimH/g cell (E. coli HM125; additive 5 mM): 1.1 mg FimH/g cell
- FimH (E. coli HM125; additive 5 mM): 9.1 ± 0.56 mg/L
- Cell pellet (E. coli HM125; additive 5 mM): 8.22 ± 0.35 g/L
- mg FimH/g cell (E. coli HM125; additive 10 mM): 1.22 mg FimH/g cell
- FimH (E. coli HM125; additive 10 mM): 9.59 ± 0.49 mg/L
- Cell pellet (E. coli HM125; additive 10 mM): 7.86 ± 0.25 g/L
- mg FimH/g cell (E. coli HM125; additive 20 mM): 1.26 mg FimH/g cell
- FimH (E. coli HM125; additive 20 mM): 10.08 ± 0.66 mg/L
- Cell pellet (E. coli HM125; additive 20 mM): 7.94 ± 0.33 g/L

Compound: CC1(C)CC(O)CC(C)(C)N1 [4-Hydroxy-2,2,6,6-tetramethyl-piperidine]
- Growth (Final OD600) (E. coli JM109 [1]; Experiment 2, control 11.0): 10.9 OD600
- GFP expression (Relative fluorescence unit*OD600^−1) (E. coli JM109 [1]; Experiment 2, control 1423): 1646 Relative fluorescence unit*OD600^−1
- Optical density Value (E. coli JM109 [2]; Experiment 6, process time 24.75 h, control 10.3): 24.7
- GFP expression (RFU/OD600) Value (E. coli JM109 [2]; Experiment 6, process time 24.75 h, control 1038): 5507 RFU/OD600
- GFP expression Factor (E. coli JM109 [2]; [3]): 5.3
- Optical density Factor (E. coli JM109 [2]; [3]): 2.39
- Optical density Value (E. coli JM109 [2]; Experiment 7, process time 17 h, control 56.4): 57.1
- GFP expression (RFU/OD600) Value (E. coli JM109 [2]; Experiment 7, process time 17 h, control 5765): 6438 RFU/OD600
- GFP expression Factor (E. coli JM109 [2]; [4]): 1.12
- Optical density Factor (E. coli JM109 [2]; [4]): 1.01

Compound: O=C1O[C@H]([C@@H](O)CO)C(O)=C1O [Ascorbic acid]
- Hirudin yield and quality (P. pastoris): increased

Compound: Tris(tetramethylhydroxypiperidinol) citrate
- Growth (Final OD600) (E. coli JM109 [1]; Experiment 3, control 10.4): 11.4 OD600
- GFP expression (Relative fluorescence unit*OD600^−1) (E. coli JM109 [1]; Experiment 3, control 1189): 2675 Relative fluorescence unit*OD600^−1

Reference: US8859235B2, “Methods in cell cultures, and related inventions, employing certain additives” (priority 2009, dated 2014)
